Assay results reported in ChEMBL document CHEMBL4219123, “Synthesis of new analogs of tetraiodothyroacetic acid (tetrac) as novel angiogenesis inhibitors for treatment of cancer” (Bioorg Med Chem Lett, 2018).
Calls of active or inactive are those of the source. No cut-off for these calls is given here.

Tested on: Mus musculus
Experiment: Antiangiogenic activity in C57/B6 mouse injected with matrigel containing murine vascular growth factor assessed as reduction in hemoglobin content in matrigel plug at 10ug/10ull to 200 uL matrigel administered subcutaneously measured after 14 days by spectrophotometry-based Drabkin method
Format: functional, organism-based

SMILES: C#CCOc1c(I)cc(Oc2c(I)cc(CC(=O)O)cc2I)cc1I
- Activity: Active

SMILES: O=C(O)Cc1cc(I)c(Oc2cc(I)c(OCCN3C(=O)c4ccccc4C3=O)c(I)c2)c(I)c1
- Activity: Active

SMILES: O=C(O)Cc1cc(I)c(Oc2cc(I)c(OCCCN3C(=O)c4ccccc4C3=O)c(I)c2)c(I)c1
- Activity: Active

SMILES: O=C(O)Cc1cc(I)c(Oc2cc(I)c(O)c(I)c2)c(I)c1
- Activity: Active

SMILES: O=C(O)Cc1cc(I)c(Oc2cc(I)c(OCCCc3ccccc3)c(I)c2)c(I)c1
- Activity: Active

SMILES: O=C(O)Cc1cc(I)c(Oc2cc(I)c(OCc3cccnc3)c(I)c2)c(I)c1
- Activity: Active
